Laboratory results published in US9107919B2, “Pharmaceutical compositions comprising imidazoquinolin(amines) and derivatives thereof suitable for local administration” (priority 2009, dated 2015).

Tests used:
[1] = Imiquimod solubility in glacial acetic acid and buffers (HPLC/UV); type: physicochemical
Procedure: The solubility was experimentally determined weighing 1200 mg of drug, adding 10 ml of glacial acetic acid and gently shaking the dispersion for 24 hours. This sample, after filtration (0.22 μm Millipore membrane filter) was analyzed by HPLC for the imiquimod content and its pH was measured.
Imiquimod (738 mg) was initially dissolved in glacial acetic acid (10 ml). A volume of this solution was appropriately diluted with phosphate buffer pH 7.0 (0.1 M), citrate buffer pH 6.0 (0.1 M) or acetate buffer pH 5.0 (0.1 M) to prepare systems containing 2.0% of drug. The samples, after filtration by 0.22 μm Millipore membrane filter, were spectrophotometrically and chromatographically analyzed for the imiquimod content. The pH was determined.

[2] = Solubility of imiquimod in glycerol or propylene glycol; type: physicochemical; conditions: for imiquimod concentration in solution: 120° C. 24 h, then water added
Procedure: Imiquimod was weighed (100 mg) and added of glycerol or propylene glycol to a volume of 10 ml. After shaking (at 120° C. for 24 hours) and cooling, 10 ml of water were added: the dispersions were filtered and the imiquimod amount in the liquid phases was determined. […] When propylene glycol was used the pH was 3.03 and the concentration of imiquimod in solution was 0.02%.

[3] = Pharmacokinetics of intravesical imiquimod in pigs (plasma, urine); type: in vivo, pig; conditions: female, Dutch Landrace, other: intravesical instillation, 50 mL of imiquimod 0.5% solution
Procedure: Female pigs (Dutch Landrace) were used for this study. […] The pigs were divided into four groups of six animals. Experimental procedures were performed under general anesthesia. Premedication contained a mixture of 10 mg/kg ketamine and 0.5 to 1.0 mg/kg midazolam i.m. in one shot. Sedation maintenance was done by the same mixture in half the dosage every 45 minutes. The bladder was emptied without suction trauma prior to the start of treatment (via 12 French Foley catheter) and 50 mL of the study drug was instilled intravesically. […] The catheter was clamped and the instillation fluid was retained in the bladder for 60 minutes, after which the bladder was emptied. The bladder was not rinsed after emptying.
Blood samples for pharmacokinetic analysis and cytokine measurement were collected in 4 mL lithium heparin tubes with gel divider before instillation of the study drug and 15, 30, 60, 120, 240 and 480 minutes after the beginning of drug instillation and also just before cystectomy. The samples were transferred on ice to the laboratory for plasma processing within 30 minutes. […]
The post-treatment evacuated bladder content and the evacuated urine just before necropsy were collected for analysis of imiquimod concentration. […] Imiquimod concentrations in plasma and urine was determined by CHIMAN s.r.1. […]

[4] = Imiquimod diffusion/release, Franz cell with cellulose acetate membrane; type: physicochemical; conditions: 0.1 M lactic acid solution, 37° C., first hour
Procedure: The imiquimod diffusion/release experiments have been performed with Franz cells with an effective diffusion area of 1.76 cm^2 and a receiving compartment volume of 14 ml: the donor compartment contained about 2 g of gel formulation, while the receiving one was filled with 0.1 M lactic acid solution (pH=3.5). Between the two compartments, a cellulose acetate membrane (MWCO=23000) was interposed. The experiments were carried out at 37° C. using a re-circulating bath and the fluid in the receptor chamber was stirred continuously at 300 rpm.
At prefixed time intervals, the receiving phase was completely withdrawn and substituted by fresh acid solution. The receiving solution was submitted to UV analysis for imiquimod.

[5] = Solubility of imiquimod in short-chain acids, cyclodextrin and surfactants (spectrophotometry); type: physicochemical
Procedure: Some inorganic and organic acids were considered as potential solubilizers of the drug. 100 mg imiquimod were dissolved in 10 ml of phosphoric acid 0.1 M, succinic acid 0.1 M, citric acid 0.1 M, acetic acid 0.01 M, 0.05 M, 0.1 M and lactic acid 0.01 M, 0.05 M, 0.088 M, and 0.1 M. These systems, after filtration, were spectrophotometrically analyzed for imiquimod and their pH was measured.
Exactly weighed amounts of imiquimod (200 mg) and hydroxypropyl-β-cyclodextrin (HP-β-CD) (4000 mg) were dissolved in 10 ml of: • water • water at pH 5.0 (corrected with HCl) • water at pH 3.0 (corrected with HCl) • lactic acid solution (0.1 M)
After shaking for 24 hours and filtration (0.22 μm Millipore membrane filter) the solubilised imiquimod was spectrophotometrically determined. The solution pH was also measured.
Imiquimod (200 mg) was weighed and mixed with different amounts of surfactants (Tween 20, Tween 80, Cremophor EL or Pluronic F-68) in order to prepare formulations containing 0.5, 2.5 and 5% of surface active agent. Each mixture was added to 10 ml of lactic acid (0.1 M), gently shaken for 24 hours, filtered and analyzed by spectrophotometry and submitted to pH measurement.
The imiquimod present in solution in compositions prepared with different acids and surfactants is spectrophotometrically determined and is shown in Table 5 together with the pH value.

[6] = 27% glacial acetic acid/73% acetate buffer pH 5.0 (0.1 M), system with 2.0% drug
[7] = 27% glacial acetic acid/73% citrate buffer pH 6.0 (0.1 M), system with 2.0% drug
[8] = 27% glacial acetic acid/73% phosphate buffer pH 7.0 (0.1 M), system with 2.0% drug
[9] = HP-β-CD 40.0% (water at pH 3.0 corrected with HCl)
[10] = HP-β-CD 40.0% (water at pH 5.0 corrected with HCl)
[11] = lactic acid 0.100 M + Cremophor EL 0.5%
[12] = lactic acid 0.100 M + Cremophor EL 2.5%
[13] = lactic acid 0.100 M + Cremophor EL 5.0%
[14] = lactic acid 0.100 M + HP-β-CD 40.0%
[15] = lactic acid 0.100 M + Pluronic F68 0.5%
[16] = lactic acid 0.100 M + Pluronic F68 2.5%
[17] = lactic acid 0.100 M + Pluronic F68 5.0%
[18] = lactic acid 0.100 M + Tween 20 0.5%
[19] = lactic acid 0.100 M + Tween 20 2.5%
[20] = lactic acid 0.100 M + Tween 20 5.0%
[21] = lactic acid 0.100 M + Tween 80 0.5%
[22] = lactic acid 0.100 M + Tween 80 2.5%
[23] = lactic acid 0.100 M + Tween 80 5.0%

CC(C)Cn1cnc2c(N)nc3ccccc3c21 [imiquimod, 1-isobutyl-1H-imidazo[4,5-c]quinolin-4-amine]
solubility in pure acetic and lactic acid [1]: > 7.5 % w/v | pH ([1]; 27% glacial acetic acid/73% acetate buffer pH 5.0): 2.92 | Imiquimod solubility, HPLC [1, 6]: 1.89 % w/v | Imiquimod solubility, UV [1, 6]: 1.92 % w/v | pH ([1]; 27% glacial acetic acid/73% citrate buffer pH 6.0): 3.20 | Imiquimod solubility, HPLC [1, 7]: 0.86 % w/v | Imiquimod solubility, UV [1, 7]: 0.72 % w/v | pH ([1]; 27% glacial acetic acid/73% phosphate buffer pH 7.0): 2.92 | Imiquimod solubility, HPLC [1, 8]: 1.69 % w/v | Imiquimod solubility, UV [1, 8]: 1.55 % w/v | Imiquimod solubility, HPLC ([1]; 100% glacial acetic acid, 24 h shaking): 7.50 % w/v | pH ([2]; glycerol system): 5.42 | imiquimod concentration in solution ([2]; glycerol): 0.02% | pH ([2]; propylene glycol system): 3.03 | imiquimod concentration in solution ([2]; propylene glycol): 0.02% | concentration at 24 h ([3]; pig, urine, after 24 hours, all imiquimod groups, read-out: imiquimod levels in urine): < 5000 ng/mL | concentration at 8 h ([3]; plasma, after eight hours, any pig): < 2.1 ng/mL | flux of imiquimod through the artificial barrier [4]: 1.95e-06 g·cm^−2·s^−1 | imiquimod in solution [5, 9]: 0.655 % w/v | pH [5, 9]: 3.05 | imiquimod in solution [5, 10]: 0.143 % w/v | pH [5, 10]: 5.17 | imiquimod in solution ([5]; HP-β-CD 40.0%, no acid (water)): 0.004 % w/v | pH ([5]; HP-β-CD 40.0%, no acid (water)): 7.09 | imiquimod in solution ([5]; acetic acid 0.010 M): 0.070 % w/v | pH ([5]; acetic acid 0.010 M): 4.37 | imiquimod in solution ([5]; acetic acid 0.050 M): 0.220 % w/v | pH ([5]; acetic acid 0.050 M): 4.08 | imiquimod in solution ([5]; acetic acid 0.100 M): 0.430 % w/v | pH ([5]; acetic acid 0.100 M): 3.97 | imiquimod in solution ([5]; citric acid 0.100 M): 0.010 % w/v | pH ([5]; citric acid 0.100 M): 2.10 | imiquimod in solution ([5]; lactic acid 0.010 M): 0.130 % w/v | pH ([5]; lactic acid 0.010 M): 4.20 | imiquimod in solution ([5]; lactic acid 0.050 M): 0.530 % w/v | pH ([5]; lactic acid 0.050 M): 3.90 | imiquimod in solution ([5]; lactic acid 0.088 M): 0.840 % w/v | pH ([5]; lactic acid 0.088 M): 3.71 | imiquimod in solution ([5]; lactic acid 0.100 M): 0.980 % w/v | pH ([5]; lactic acid 0.100 M): 3.61 | imiquimod in solution [5, 11]: 0.881 % w/v | pH [5, 11]: 3.90 | imiquimod in solution [5, 12]: 0.989 % w/v | pH [5, 12]: 3.87 | imiquimod in solution [5, 13]: 0.969 % w/v | pH [5, 13]: 3.88 | imiquimod in solution [5, 14]: 1.141 % w/v | pH [5, 14]: 4.46 | imiquimod in solution [5, 15]: 1.048 % w/v | pH [5, 15]: 3.85 | imiquimod in solution [5, 16]: 1.088 % w/v | pH [5, 16]: 3.87 | imiquimod in solution [5, 17]: 0.972 % w/v | pH [5, 17]: 3.89 | imiquimod in solution [5, 18]: 0.945 % w/v | pH [5, 18]: 3.88 | imiquimod in solution [5, 19]: 1.004 % w/v | pH [5, 19]: 3.86 | imiquimod in solution [5, 20]: 1.001 % w/v | pH [5, 20]: 3.89 | imiquimod in solution [5, 21]: 0.997 % w/v | pH [5, 21]: 3.83 | imiquimod in solution [5, 22]: 1.009 % w/v | pH [5, 22]: 3.82 | imiquimod in solution [5, 23]: 0.872 % w/v | pH [5, 23]: 3.82 | imiquimod in solution ([5]; phosphoric acid 0.100 M): 0.159 % w/v | pH ([5]; phosphoric acid 0.100 M): 1.80 | imiquimod in solution ([5]; succinic acid 0.100 M): 0.079 % w/v | pH ([5]; succinic acid 0.100 M): 2.94
